In brackets after ≈: the same amount, converted by molar mass. Activity calls are given as the source filed them. The rule behind the calls is not given here.

The test system of one data set is Pseudomonas aeruginosa. In words: Antibacterial activity against Pseudomonas aeruginosa ATCC BAA-427 incubated for 16 to 18 hrs by broth microdilution method. It counts as functional. Conditions: time 16-18 hrs.
Data set [1] has as its system Escherichia coli. Nature of the data set: Antibacterial activity against Escherichia coli ATCC 25922 incubated for 16 to 18 hrs by broth microdilution method. The conditions noted are these: time 16-18 hrs. The format is functional.
For data set [2], the system named is Staphylococcus aureus. Nature of the data set: Antibacterial activity against methicillin-resistant Staphylococcus aureus ATCC BAA-44 incubated for 16 to 18 hrs by broth microdilution method. It counts as functional. Conditions: time 16-18 hrs.
The subject of data set [3] is Escherichia coli. In words: Bactericidal activity against Escherichia coli ATCC 25922 incubated for 16 hrs. It counts as functional.
In data set [4] the test system is Staphylococcus aureus. In words: Antibacterial activity against Staphylococcus aureus ATCC 25923 incubated for 16 to 18 hrs by broth microdilution method. The format is functional. The conditions noted are these: time 16-18 hrs.
A further data set deals with Acinetobacter baumannii. Nature of the data set: Antibacterial activity against Acinetobacter baumanni ATCC 19606 incubated for 16 to 18 hrs by broth microdilution method. The format is functional. Conditions: time 16-18 hrs.
For data set [5], the system named is Staphylococcus aureus. Nature of the data set: Bactericidal activity against Staphylococcus aureus ATCC 25923 incubated for 16 hrs. The format is functional.
Data set [6] deals with Staphylococcus aureus. In words: Antibacterial activity against methicillin-resistant Staphylococcus aureus ATCC 33591 incubated for 16 to 18 hrs by broth microdilution method. It counts as functional. Conditions: time 16-18 hrs.
In data set [7] the test system is Escherichia coli. In words: Induction of cell membrane damage in Escherichia coli ATCC 25922 at 1 to 5 times MIC by SYTOX green fluorescence based analysis. The format is functional, organism-based.
Data set [8] deals with Staphylococcus aureus. Nature of the data set: Induction of cell membrane damage in Staphylococcus aureus ATCC 25923 at 5 times MIC incubated for 60 mins by PI staining based FACS analysis. The format is functional, organism-based.
Data set [9] is described as follows: Cytotoxicity against mouse 3T3-L1 cells assessed as cell viability upto 60 uM incubated for 4 hrs by MTT assay relative to control. It counts as toxicity, cell-based. Conditions: read-out: Activity.
Data set [10] in a line: Hemolytic activity against human RBCs upto 100 uM incubated for 45 mins by absorbance based assay. The format is toxicity, cell-based, Erythrocyte. Conditions: red blood cells (erythrocytes), read-out: Activity.
Data set [11] deals with Staphylococcus aureus. In words: Induction of cell membrane damage in Staphylococcus aureus ATCC 25923 at 1 to 5 times MIC by SYTOX green fluorescence based analysis. It counts as functional, organism-based.
Data set [12] has as its system Escherichia coli. Nature of the data set: Induction of cell membrane damage in Escherichia coli ATCC 25922 at 5 times MIC incubated for 60 mins by PI staining based FACS analysis. The format is functional, organism-based.

For the compound `CN(C)[C@@H]1C(O)=C(C(N)=O)C(=O)[C@@]2(O)C(O)=C3C(=O)c4c(O)cccc4[C@@](C)(O)[C@H]3C[C@@H]12` [TETRACYCLINE], the MIC with Pseudomonas aeruginosa was determined as 1.56 µM (≈ 0.693 µg/mL); against Escherichia coli [1], 0.78 µM (≈ 0.347 µg/mL); in the data set with Staphylococcus aureus [2], 0.78 µM (≈ 0.347 µg/mL); against Staphylococcus aureus [4], 0.39 µM (≈ 0.173 µg/mL); against Acinetobacter baumannii, 0.39 µM (≈ 0.173 µg/mL); in the data set on Staphylococcus aureus [6], 0.78 µM (≈ 0.347 µg/mL). For the same compound, the MBC with Escherichia coli [3] and against Staphylococcus aureus [5] was 0.78 µM (≈ 0.347 µg/mL) in each case.

For `COC(=O)[C@H](CCCc1cc2ccc3ccc4ccc5ccc1c1c5c4c3c21)NC(=O)CNC(=O)[C@@H](N)CCCCN`, the MIC was 50 µM (≈ 28.2 µg/mL) against Pseudomonas aeruginosa; 50 µM (≈ 28.2 µg/mL) against Escherichia coli [1]; 12.5 µM (≈ 7.06 µg/mL) in the data set on Staphylococcus aureus [2]; 12.5 µM (≈ 7.06 µg/mL) in the data set with Staphylococcus aureus [4]; 50 µM (≈ 28.2 µg/mL) against Acinetobacter baumannii; 12.5 µM (≈ 7.06 µg/mL) in the data set with Staphylococcus aureus [6]. The outcome in the data set with Escherichia coli [7] was inactive. Besides, the result in the data set on Staphylococcus aureus [8], in the data set on Staphylococcus aureus [11] and in the data set with Escherichia coli [12] was Active. In addition, the viability at 4 h, up to 60 µM in data set [9] was found to be 62%. In addition, the hemolysis at 0.75 h, up to 100 µM in data set [10] was approximately 5%. For the same compound, the MBC against Escherichia coli [3] amounted to 50 µM (≈ 28.2 µg/mL); against Staphylococcus aureus [5] it was 12.5 µM (≈ 7.06 µg/mL).

`COC(=O)[C@H](Cc1cc2ccc3ccc4ccc5ccc1c1c5c4c3c21)NC(=O)CNC(=O)[C@@H](N)CCCCN`: the MIC came to 50 µM (≈ 26.8 µg/mL) in the data set on Pseudomonas aeruginosa; 50 µM (≈ 26.8 µg/mL) in the data set with Escherichia coli [1]; 12.5 µM (≈ 6.71 µg/mL) in the data set on Staphylococcus aureus [2]; 12.5 µM (≈ 6.71 µg/mL) in the data set with Staphylococcus aureus [4]; 100 µM (≈ 53.7 µg/mL) against Acinetobacter baumannii; 12.5 µM (≈ 6.71 µg/mL) with Staphylococcus aureus [6]. Besides, the result in the data set with Escherichia coli [7] was inactive. The result in the data set on Staphylococcus aureus [8], in the data set with Staphylococcus aureus [11] and in the data set on Escherichia coli [12] was Active. Besides, in [9], the viability at 4 h, up to 60 µM worked out at 47%. For the same compound, the hemolysis at 0.75 h, up to 100 µM in data set [10] is approximately 3%. Also, the minimum bactericidal concentration (MBC) against Escherichia coli [3] and in the data set on Staphylococcus aureus [5] was 50 µM (≈ 26.8 µg/mL) throughout.

For the compound `COC(=O)[C@H](CCCNC(=N)NS(=O)(=O)c1ccc(C)cc1)NC(=O)[C@@H](N)Cc1cc2ccc3ccc4ccc5ccc1c1c5c4c3c21`, the MIC with Pseudomonas aeruginosa, in the data set on Escherichia coli [1], against Staphylococcus aureus [2], in the data set on Staphylococcus aureus [4], against Acinetobacter baumannii and against Staphylococcus aureus [6] was more than 400 µM throughout. Further, the result in the data set on Staphylococcus aureus [8] and with Escherichia coli [12] was Active.

For `O=C(O)c1cn(C2CC2)c2cc(N3CCNCC3)c(F)cc2c1=O` [CIPROFLOXACIN], the MIC against Pseudomonas aeruginosa amounted to 1.56 µM (≈ 0.517 µg/mL); against Escherichia coli [1], 0.39 µM (≈ 0.129 µg/mL); with Staphylococcus aureus [2] it was 0.39 µM (≈ 0.129 µg/mL); against Staphylococcus aureus [4] it was 0.39 µM (≈ 0.129 µg/mL); against Acinetobacter baumannii it was 0.39 µM (≈ 0.129 µg/mL); with Staphylococcus aureus [6], 1.56 µM (≈ 0.517 µg/mL). Besides, the MBC in the data set on Escherichia coli [3] and against Staphylococcus aureus [5] was 0.39 µM (≈ 0.129 µg/mL) in each case.

For the origin of these results see ChEMBL document CHEMBL5584357, “Corannulene Amino Acid-Derived Water-Soluble Amphiphilic Buckybowls as Broad-Spectrum Membrane Targeting Antibacterial Agents” (J Med Chem, 2024).
